One assay addresses T1, S. aureus SrtA (Staphylococcus aureus, UniProt Q2FV99).
T1 construct: 6xHis; made in house; host or cells: E. coli BL21 (DE3), plasmid pET28a-SrtA
Description: FRET assay of SrtA transpeptidation (cleavage of Abz-LPATG-Dap(Dnp)-NH2). Type of assay: biochemical. Here is the method: Fluorescence resonant energy transfer (FRET) was used to determine the effect of Tax on SrtA, as described previously ([Kruger et al., 2002]). Briefly, 4 μM purified recombinant SrtA was combined with various concentrations of Tax then added to assay buffer consisting of 50 mM Tris-HCl, 5 mM CaCl2, 150 mM NaCl, at pH 7.5, to a final volume of 200 μL. Following incubation of the mixture at 37°C for 1 h, substrate peptide was added to a final concentration of 10 μM and incubated for an additional 30 min. Fluorescence intensity was measured at excitation and emission wavelengths of 309 and 420 nm, respectively.
(§1) To identify novel inhibitors of SrtA, an in-house library containing 420 natural compounds was screened, using a FRET assay. […] To further clarify the interacting way of SrtA and Tax, recombinant SrtA was reacted with Tax at a concentration of 10-fold IC50. A total of 85.80 ± 0.67% of SrtA activity was subsequently recovered, compared with the control group (DMSO) (Figure 1C).
FIGURE 1 Inhibition of SrtA transpeptidation. (A) Chemical structure of Tax. […] Each reaction condition was assayed in triplicate from which the IC50 was determined. (C) Recombinant SrtA was treated with 10 × IC50 of Tax and then diluted, after which transpeptidation activity was measured using a FRET assay. […]

A further assay deals with T2, SrtA (Staphylococcus aureus, UniProt Q2FV99).
T2 construct: 6xHis; made in house; host or cells: E. coli BL21 (DE3), plasmid pET28a-SrtA
Description: Reversibility of SrtA inhibition (10 × IC50, dilution, FRET assay). Type of assay: biochemical. The conditions noted are these: SrtA treated with 10-fold IC50 of Tax then diluted; compared with control group (DMSO).
Source text: as §1
FIGURE 1 Inhibition of SrtA transpeptidation. (A) Chemical structure of Tax. (B) Tax inhibits SrtA cleavage of a fluorogenic peptide substrate (Abz-LPATG-Dnp-NH2) in a dose-dependent manner in vitro. Each reaction condition was assayed in triplicate from which the IC50 was determined. (C) Recombinant SrtA was treated with 10 × IC50 of Tax and then diluted, after which transpeptidation activity was measured using a FRET assay. Untreated SrtA (Control) represented 100% activity.

The subject of assay [1] is S. aureus mature biofilms. The assay is described as follows: Mature biofilm assay (crystal violet). The conditions noted are these: 25–200 μM Tax, 24 h. Type of assay: cell-based, Staphylococcus aureus. On the procedure:
S. aureus biofilms were formed for 24 h at 37°C on the surfaces of the wells of a 96-well plate. Following biofilm formation, different Tax concentrations (25–200 μM) were added to selected wells and the plates were incubated for 24 h at 37°C. The effects of Tax on the mature biofilms were estimated using the crystal violet stain and recorded by a microplate reader.
FIGURE 3 Effect of SrtA inhibitor on virulence-related phenotypes in S. aureus Newman strain. (A) Impact of Tax on the ability of S. aureus to adhere to fibrinogen. (B) Biofilm formation of S. aureus in the presence of different concentrations of Tax. (C) Mature biofilms of S. aureus in the presence of different concentrations of Tax. The ΔsrtA group represented the positive control. (D) Tax affects internalization of S. aureus into A549 cells. A549 cells were infected with S. aureus pretreated with different concentrations of Tax then lysed 2 h post-infection. The number of viable S. aureus in the cells was quantified by serial dilution on TSA agar plates. (E) Effects of Tax on S. aureus protein A (SpA) using FITC-labeled rabbit IgG. Error bars represent means ± SD of three replicates. *P < 0.05, **P < 0.01, ***P < 0.001 calculated with a two-tailed Student’s t-test.

Another assay concerns the target T3, WT-SrtA (Staphylococcus aureus, UniProt Q2FV99).
T3 construct: 6xHis; made in house; host or cells: E. coli BL21 (DE3), plasmid pET28a-SrtA
Description: Fluorescence quenching assay, WT-SrtA. Type of assay: binding. An excerpt:
(§2) Molecular modeling studies highlight the benefits of performing site-directed mutagenesis studies. Therefore, fluorescence quenching experiments were utilized to determine the binding affinity of Tax with SrtA and SrtA mutants (D170A, Q172A).

The target of the next assay is T4, Q172A-SrtA mutant (Staphylococcus aureus, UniProt Q2FV99, Q172A).
T4 construct: 6xHis; made in house; host or cells: E. coli BL21 (DE3), mutated pET28a-SrtA
Description: Fluorescence quenching assay, Q172A-SrtA. Type of assay: binding. On the procedure: Site-directed mutagenesis for D170A-SrtA and Q172A-SrtA was performed based on plasmid pET28a-SrtA using a multi-site mutagenesis kit (Transgen, Beijing, China) and the desired mutation was verified via DNA sequencing by Sangon Biotech (Shanghai, China). Subsequently, recombinant SrtA and the SrtA mutant proteins (D170A and Q172A) were expressed and purified in accordance with a previously published procedure ([Zhulenkovs et al., 2014]). Briefly, bacteria were cultured until an OD600 value of 0.8 was achieved, after which 0.5 mM isopropyl-β-D-thiogalactopyranoside (IPTG) was added to induce recombination of SrtA at 16°C overnight. Because the recombinant protein had 6 × His tags, it was purified using a nickel-nitrilotriacetic acid (Ni-NTA) purification system. Imidazole (10 mM) was used to wash away excess protein, while 400 mM imidazole was employed to elute the target protein.
as §2

As to `O=C1c2c(O)cc(O)cc2OC(c2ccc(O)c(O)c2)C1O` (centres unmarked) [Tax, taxifolin], on S. aureus SrtA, the IC50 was determined as 24.5 ± 0.42 µM. For the same compound, the SrtA activity recovered at SrtA worked out at 85.80 ± 0.67%. Besides, the “effect on mature biofilms” value in assay [1] is “had no effect”. Moreover, the Kd at WT-SrtA was 15.6 µM; at Q172A-SrtA mutant, 26 µM.

As usually defined, the IC50 is the midpoint of a concentration-inhibition curve. What is called Kd is the free concentration of one partner at which half of the binding sites on the other are occupied at equilibrium, for simple one-to-one binding.

The values are drawn from paper PMC8290497, “Taxifolin, an Inhibitor of Sortase A, Interferes With the Adhesion of Methicillin-Resistant Staphylococcal aureus” (Frontiers in Microbiology, 2021).
